According to the supplement of paper PMC10331698:
± gives the standard deviation of the averaged measurements.

Tests used:
Experiment in all cases: level (log10 ratio to DMSO vehicle control); higher = higher biomarker level / cell amount than vehicle control
Conditions in all cases: in DMSO
[1] = compound: C=CC(F)(F)C(F)(F)C(F)(F)C(F)(F)C(F)(F)C(F)(F)C(F)(F)C(F)(F)C=C [1,8-Divinylperfluorooctane]
Experimental: (§1)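 BioMAP Diversity Plus panel of 12 human primary cell co-culture systems (3C, 4H, LPS, SAg, BT, BF4T, BE3C, CASM3C, HDF3CGF, KF3CT, MyoF, Mphg). Compounds were added 1 h before stimulation and left for 24 h (MyoF 48 h; BT 72 h for soluble read-outs or 6 d for IgG). Biomarkers were read by ELISA, cytotoxicity by SRB, PBMC viability and proliferation by Alamar Blue. Each well value was divided by the mean of 8 DMSO control wells on the same plate and log10 transformed; duplicate blinded samples were tested at 4 concentrations.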

[2] = compound: CCN(CCO)S(=O)(=O)C(F)(F)C(F)(F)C(F)(F)C(F)(F)C(F)(F)C(F)(F)C(F)(F)C(F)(F)F [N-Ethyl-N-(2-hydroxyethyl)perfluorooctanesulfonamide]
Experimental: as §1

[3] = compound: FC(F)C(F)(F)COCC1CO1 [((2,2,3,3-Tetrafluoropropoxy)methyl)oxirane]
Experimental: as §1

[4] = compound: O=C(O)C(F)(F)C(F)(F)C(F)(F)F [Perfluorobutanoic acid]
Experimental: as §1

[5] = compound: O=C(O)C(F)(F)C(F)(F)C(F)F [4H-Perfluorobutanoic acid]
Experimental: as §1

[6] = compound: O=C(O)C(F)(F)OC(F)(F)C(F)(F)OC(F)(F)C(=O)O [Perfluoro-3,6-dioxaoctane-1,8-dioic acid]
Experimental: as §1

[7] = compound: O=S(=O)(O)C(F)(F)C(F)(F)C(F)(F)C(F)(F)C(F)(F)C(F)(F)F [Perfluorohexanesulfonic acid]
Experimental: as §1

Test System	level (log10) ([1]; 6700 nM)	level (log10) ([1]; 20000 nM)	level (log10) ([2]; 6700 nM)	level (log10) ([2]; 20000 nM)	level (log10) ([3]; 6700 nM)	level (log10) ([3]; 20000 nM)	level (log10) ([3]; 60000 nM)	level (log10) ([4]; 6700 nM)	level (log10) ([4]; 20000 nM)	level (log10) ([4]; 60000 nM)	level (log10) ([5]; 6700 nM)	level (log10) ([5]; 20000 nM)	level (log10) ([5]; 60000 nM)	level (log10) ([6]; 6700 nM)	level (log10) ([6]; 20000 nM)	level (log10) ([6]; 60000 nM)	level (log10) ([7]; 6700 nM)	level (log10) ([7]; 20000 nM)	level (log10) ([7]; 60000 nM)
KF3CT:CCL2/MCP-1	-0.0165 ± 0.016	0.009 ± 0.042	-0.0205 ± 0.0078	-0.102 ± 0.019	-0.0245 ± 0.0021	-0.0045 ± 0.026	0.012 ± 0.013	-0.028 ± 0.0099	-0.0325 ± 0.0035	0.0205 ± 0.023	-0.0705 ± 0.0092	-0.032 ± 0.0099	-0.0115 ± 0.023	-0.0135 ± 0.016	-0.011 ± 0.0057	-0.0045 ± 0.013	0.0075 ± 0.032	-0.001 ± 0.013	0.0205 ± 0.023
MyoF:PAI-I	0.003 ± 0.0071	0.006 ± 0.0071	-0.0065 ± 0.0064	-0.0085 ± 0.018	-0.008 ± 0.0028	-0.002 ± 0.0085	-0.0115 ± 0.0064	-0.008 ± 0.0014	-0.0055 ± 0.018	-0.0105 ± 0.013	-0.0105 ± 0.019	-0.023 ± 0.023	-0.0095 ± 0.011	0.003 ± 0.013	-0.0005 ± 0.0064	0.005 ± 0.0085	-0.0055 ± 0.013	-0.0135 ± 0.015	-0.0055 ± 0.012
HDF3CGF:CXCL11/I-TAC	0.0135 ± 0.013	0.016 ± 0.037	-0.0535 ± 0.046	-0.172 ± 0.041	0.027 ± 0.013	-0.0005 ± 0.0035	0.003 ± 0.0057	0.005 ± 0.016	-0.0035 ± 0.011	0.001 ± 0.023	-0.0155 ± 0.071	0.003 ± 0.0071	0.0125 ± 0.0035	0.0105 ± 0.011	0.0235 ± 0.012	0.012 ± 0.0042	0.01	-0.004 ± 0.0099	-0.004 ± 0.021
3C:CD142/Tissue Factor	-0.068 ± 0.041	-0.0205 ± 0.061	0.0825 ± 0.036	0.235 ± 0.059	-0.0175 ± 0.07	-0.032 ± 0.05	-0.036 ± 0.071	0.011 ± 0.0042	0.0085 ± 0.021	0.0035 ± 0.043	-0.004 ± 0.0014	-0.021 ± 0.0099	0.0105 ± 0.005	-0.004 ± 0.042	-0.0155 ± 0.013	-0.0025 ± 0.059	0.014 ± 0.023	0.0105 ± 0.025	0.0545 ± 0.011
lMphg:CXCL8/IL-8	0.0055 ± 0.026	0.0125 ± 0.064	-0.047 ± 0.048	-0.032 ± 0.016	-0.0125 ± 0.066	-0.001 ± 0.017	-0.005 ± 0.011	-0.022 ± 0.014	-0.017 ± 0.0028	0.0165 ± 0.04	0.024 ± 0.0028	0.0145 ± 0.0021	0.0315 ± 0.011	-0.024 ± 0.027	0 ± 0.068	-0.002 ± 0.085	0.029 ± 0.11	0.052 ± 0.088	0.169 ± 0.18
MyoF:Collagen I	-0.0145 ± 0.016	-0.005 ± 0.0028	0.042 ± 0.0028	-0.155 ± 0.029	0.01 ± 0.0014	-0.005 ± 0.016	0.0155 ± 0.023	0.0075 ± 0.011	0.005 ± 0.042	0.0025 ± 0.012	-0.0215 ± 0.022	-0.0115 ± 0.018	-0.0115 ± 0.0092	0.0015 ± 0.015	-0.005 ± 0.0099	0.002 ± 0.011	-0.0035 ± 0.023	0.008 ± 0.025	0.019 ± 0.028
MyoF:MMP-1	-0.054 ± 0.037	0.034 ± 0.099	0.069 ± 0.021	0.426 ± 0.052	0.0115 ± 0.0035	-0.031 ± 0.018	0.0045 ± 0.005	-0.027 ± 0.0028	-0.0135 ± 0.016	-0.0005 ± 0.04	-0.0355 ± 0.07	-0.07 ± 0.054	0.022 ± 0.044	-0.0065 ± 0.0092	-0.0155 ± 0.019	0.0225 ± 0.067	-0.029 ± 0.0085	-0.012	-0.002 ± 0.0028
HDF3CGF:MMP-1	-0.0035 ± 0.005	0.0165 ± 0.012	0.043 ± 0.013	0.0065 ± 0.026	0.0085 ± 0.012	0.0175 ± 0.0064	0.0125 ± 0.023	0.0135 ± 0.0064	0.0095 ± 0.0035	0.021 ± 0.027	0.0005 ± 0.0021	-0.0025 ± 0.0035	0.0075 ± 0.021	-0.004 ± 0.013	-0.003 ± 0.014	-0.0025 ± 0.018	0.001 ± 0.025	-0.0095 ± 0.03	0.01 ± 0.028
lMphg:SRB-Mphg	-0.0135 ± 0.016	0.0495 ± 0.0092	0.0095 ± 0.00071	0.001 ± 0.021	0.0075 ± 0.016	0.021 ± 0.025	0.02 ± 0.033	-0.059 ± 0.054	-0.0275 ± 0.18	0.0175 ± 0.17	-0.009 ± 0.075	-0.015 ± 0.054	0 ± 0.027	-0.0025 ± 0.0035	-0.009 ± 0.016	-0.003 ± 0.0099	0.0015 ± 0.074	0.013 ± 0.0071	0.0255 ± 0.018
BE3C:PAI-I	0.016 ± 0.017	0.016 ± 0.016	-0.066 ± 0.0071	-0.092 ± 0.017	-0.0145 ± 0.028	-0.015 ± 0.034	-0.011 ± 0.018	-0.011 ± 0.011	-0.025 ± 0.023	-0.0085 ± 0.0035	-0.0235 ± 0.025	-0.014 ± 0.038	-0.0175 ± 0.023	-0.013 ± 0.0042	-0.0105 ± 0.019	0.0065 ± 0.022	0.0035 ± 0.00071	-0.003 ± 0.0085	0.001 ± 0.0014
HDF3CGF:Collagen I	0.043 ± 0.054	0.0595 ± 0.016	0.0835 ± 0.03	0.112 ± 0.0092	-0.03 ± 0.0042	-0.038 ± 0.013	0.022 ± 0.11	-0.022 ± 0.025	-0.0105 ± 0.023	0.0175 ± 0.07	-0.0445 ± 0.028	-0.024 ± 0.072	0.0525 ± 0.029	-0.011 ± 0.068	-0.0135 ± 0.053	0.0405 ± 0.015	0.0085 ± 0.015	0.0185 ± 0.015	0.0555 ± 0.067
lMphg:CD69	-0.013 ± 0.0042	-0.011 ± 0.014	-0.0715 ± 0.012	-0.129 ± 0.0099	-0.048 ± 0.02	-0.001 ± 0.0071	-0.028 ± 0.033	0.0505 ± 0.066	0.0455 ± 0.0021	0.087 ± 0.1	0.0185 ± 0.032	-0.0175 ± 0.0021	0.0095 ± 0.019	-0.0565 ± 0.015	0 ± 0.054	-0.024 ± 0.098	-0.007 ± 0.027	0.007 ± 0.04	-0.036 ± 0.018
KF3CT:MMP-9	-0.0395 ± 0.028	-0.029 ± 0.018	0.01 ± 0.0085	-0.0875 ± 0.015	0.0085 ± 0.0064	-0.005 ± 0.011	0.012 ± 0.011	-0.01 ± 0.021	-0.0185 ± 0.019	0.0005 ± 0.013	-0.024 ± 0.055	-0.0395 ± 0.012	-0.0775 ± 0.00071	-0.0105 ± 0.012	0 ± 0.0042	0.007 ± 0.0085	0.0095 ± 0.0064	0.028 ± 0.0014	0.027 ± 0.0057
lMphg:CD62E/E-Selectin	-0.006 ± 0.024	-0.054 ± 0.038	0.0935 ± 0.0078	0.14 ± 0.0099	-0.0155 ± 0.0064	-0.0195 ± 0.029	-0.035 ± 0.011	0.0155 ± 0.036	0.027 ± 0.041	0.0175 ± 0.023	-0.012 ± 0.0028	0.0025 ± 0.0092	0.0145 ± 0.0064	-0.027 ± 0.034	-0.018 ± 0.016	0.0185 ± 0.0092	0.0145 ± 0.00071	0.019 ± 0.0099	0.0955 ± 0.035
MyoF:alpha-SM Actin	-0.016 ± 0.0042	-0.0155 ± 0.028	0.0845 ± 0.023	-0.235 ± 0.057	-0.0185 ± 0.019	0.0015 ± 0.022	-0.0075 ± 0.03	0.006 ± 0.037	0.003 ± 0.031	0.024 ± 0.058	-0.0335 ± 0.047	-0.0245 ± 0.049	-0.026 ± 0.034	0.001	-0.0125 ± 0.013	0.0245 ± 0.0021	0.012 ± 0.0071	0.006 ± 0.021	0.008 ± 0.031
